Source: patent US20120264231A1, “ASSAY FOR ORAI CALCIUM CHANNEL REGULATORS” (IMMUNE DISEASE INSTITUTE, INC., priority 2009, published 2012)

Columns and labels:
[1] = target: ORAI1 (Homo sapiens, UniProt Q96D31); test: Confocal localization of mCherry-STIM1 proteins in HEK293 cells; assay type: cell-based; parameters: expressed in transfected cells; host or cells: HEK293; conditions: mCherry-STIM1 proteins coexpressed with ORAI1 in HEK293 cells
Excerpt: The localization of mCherry-STIM1 proteins in transiently-transfected HEK293 cells was investigated. mCherry-STIM1 (233-683), or (233-498) or (233-463) expressed alone, and also mCherry-STIM (233-683), or (233-498) or (233-463) expressed with ORAI-EYFP in the plasmid ratios 1:0, 0.5:1, 1:1, and 2:1 were examined. […] This is consistent with the functional assay in T cells and with recent reports in the literature (Muik, M., et al., J Biol Chem 283, 8014-8022 (2008); Penna, A., et al., Nature 456, 116-120 (2008); Ji, W., et al., Proc Natl Acad Sci USA 105, 13668-13673 (2008); Yuan, J. P., et al., Nat Cell Biol 11, 337-34 3 (2009); Muik, M., et al., J Biol Chem 284, 8421-8426 (2009); Park, C. Y., et al., Cell 136, 876-890 (2009)). […] The contrasting failure to detect binding of STIM 1 (233-463) in vitro might conceivably reflect the state of the bacterially-expressed protein as a mixture of trimers, tetramers, and undefined large aggregates. A more intriguing possibility, however, is that a weak interaction of STIM 1 (233-463) with ORAI is stabilized and rendered productive by additional proteins in mammalian cells.
An ORAI1-YFP expression plasmid was constructed by cloning the human ORAI1 cDNA (accession number NM_032790) into the vector pEYFP-N1 between the EcoRI and AgeI sites, in frame with the YFP coding sequence. mCherry-tagged STIM 1^CT fragments were made by subcloning mCherry between the BamHI and EcoRI sites of the vector pcDNA3.1(+) (Invitrogen), and subsequently inserting cDNA encoding STIM1^CT fragments between the EcoRI and XhoI sites.
HEK293 cells were transiently transfected with ORAI-YFP or mCherry-STIM plasmids using Lipofectamine 2000 (Invitrogen) according to the manufacturer's instructions. At 48 h post-transfection, confocal imaging was performed on a Zeiss LSM 510 laser scanning microscope with a 100× oil-immersion objective lens. YFP was excited at 488 nm with an argon laser and mCherry at 543 nm with a HeNe laser. All the experiments were carried out with cells bathed in Hanks' Balanced Salt Solution at 37° C.

[2] = system: STIM1−/− T cells; test: Single-cell [Ca2+]i measurement in STIM1−/− T cells expressing STIM1 fragments; assay type: cell-based, murine; conditions: for constitutive Ca^2+ influx: retroviral expression, Fura-2
Excerpt: To determine the competence of STIM 1 fragments to activate ORAI1 in mammalian cells, Myc-tagged STIM 1^CT and its truncated variants were introduced by retroviral expression into STIM1−/− T cells, and their ability to elevate resting Ca^2+ permeability was examined in cells loaded with Fura-2. As in human Jurkat T cells (Huang, G. N., et al., (2006); supra), expression of the soluble cytoplasmic portion of STIM 1 activated Ca^2+ influx into STIM1−/− murine T cells (FIG. 11). Elevated Ca^2+ permeability was evident in a marked increase in cytoplasmic [Ca^2+] on changing to medium containing 2 mM Ca^2+ after brief exposure to nominally Ca^2+-free medium. […] Retroviral vector alone conferred no constitutive influx above the level in control cells, as previously shown (Oh-hora, M., et al., (2008), supra).
Retroviral expression plasmids encoding mouse STIM 1 and its cytoplasmic fragments (residues 233-685, 233-600, 233-498, or 233-463) were constructed by inserting the corresponding coding sequences between the XhoI and EcoRI sites of the vector pMSCV-CITE-eGFP-PGK-Puro (Clontech), which allows for coexpression of the inserted gene, GFP, and a puromycin resistance gene. GFP expression was used to estimate transducing efficiency.
Primary CD4^+ cells were purified from spleen and lymph nodes of Stim1^f1/f1 CD4-Cre^+ mice using Dynal magnetic beads (Invitrogen) following the manufacturer's instructions. Purified T cells were stimulated with anti-CD3 and anti-CD28, transduced with retroviruses obtained from transfected Phoenix packaging cells, and further expanded in IL-2-containing medium as described (Oh-hora, M., et al., Nat Immunol 9, 432-443 (2008); Ansel, K. M., et al., Nat Immunol 5, 1251-1259 (2004)). The transduction efficiency (>80%) was estimated by evaluating GFP expression using flow cytometry.
Retrovirus-transduced CD4^+ cells isolated from Stim1^f1/f1 CD4-Cre^+ mice were incubated overnight in IL-2 free RPMI medium and loaded with 2 μM Fura-2-acetoxylmethyl ester (Invitrogen) for 45 min at ambient temperature in the dark. T cells were further attached to coverslips precoated with 0.01% poly-L-lysine, mounted to a RC-20 closed-bath flow chamber (Warner Instrument), and bathed in Ringer's solution (155 mM NaCl, 4.5 mM KCl, 2 mM CaCl2, 1 mM MgCl2, 10 mM D-glucose and 5 mM HEPES, pH 7.4). For nominally Ca^2+-free Ringer's solution CaCl2 was replaced with MgCl2. After 5 minutes of equilibration in Ringer's solution, [Ca^2+]i measurement commenced with ˜3 min perfusion of T cells with Ca^2+-free Ringer's solution at ambient temperature, followed by perfusion of Ringer's solution containing 2 mM CaCl2. The cycle was repeated once with final addition of Ringer's solution supplemented with 2 μM LaCl3 to block Ca^2+ flux. Images were acquired using a Zeiss Axiovert S200 epifluorescence microscope and OpenLab imaging analysis software (Improvision). The fluorescence data (F340 nm/F380 nm) were collected every 4 s and analyzed as described (Oh-hora, M., et al., (2008), supra; Feske, S., et al., Nature 441, 179-185 (2006)). In each experiment, for each experimental condition, 50-100 GFP-positive CD4+ T cells were analyzed.

ORAI1, sequence (Q96D31 whole entry): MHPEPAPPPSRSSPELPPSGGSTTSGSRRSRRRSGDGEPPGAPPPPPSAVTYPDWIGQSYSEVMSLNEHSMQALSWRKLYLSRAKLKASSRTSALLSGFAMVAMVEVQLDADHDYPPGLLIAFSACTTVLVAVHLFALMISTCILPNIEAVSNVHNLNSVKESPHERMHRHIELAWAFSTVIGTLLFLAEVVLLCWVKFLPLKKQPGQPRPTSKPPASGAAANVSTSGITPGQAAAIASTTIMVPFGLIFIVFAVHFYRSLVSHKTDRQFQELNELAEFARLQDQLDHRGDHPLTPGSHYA

Substance | localization at plasma membrane [1] | constitutive Ca^2+ influx [2] | maximum levels of cytoplasmic Ca^2+ ([2]; compared with STIM1^CT) | rate of rise of cytoplasmic Ca^2+ ([2]; compared with STIM1^CT) | steepest rise of cytoplasmic [Ca^2+] ([2]; on changing to medium containing 2 mM Ca^2+) [nM/s]
STIM1 (233-463): truncated mouse STIM1 cytoplasmic fragment, residues 233-463, His-tagged recombinant protein | decorated the plasma membrane | smaller but very clear constitutive Ca^2+ influx | – | – | –
STIM1 (233-498): truncated mouse STIM1 cytoplasmic fragment, residues 233-498, His-tagged recombinant protein | decorated the plasma membrane | activated a prominent constitutive Ca^2+ influx | somewhat less than with STIM1^CT | nearly comparable to the rate with STIM 1^CT | –
STIM1^CT: cytoplasmic region of STIM1, mouse residues 233-685, His-tagged recombinant protein expressed in E coli | decorated the plasma membrane | – | – | – | ~15
